Test results from patent US10723723B2, “Substituted bicycle heterocyclic derivatives useful as ROMK channel inhibitors” (BRISTOL-MYERS SQUIBB COMPANY, priority 2016, dated 2020).

Assays:
hERG channels = hERG channels (Homo sapiens (Human), UniProt Q12809); assay: hERG Manual Patch Clamp Assay (HEK 293 cells stably expressing hERG channels); type: cell-based; settings: human, HEK 293 cells stably expressing hERG channels, pH 7.4
Experimental: hERG electrophysiology assay: The experimental compounds were assessed for hERG activity on HEK 293 cells stably expressing hERG channels using patch clamp technique. Coverslips plated with hERG expressing cells were placed in the experimental chamber and were perfused with a solution composed of (in mM): 140 NaCl, 4 KCl, 1.8 CaCl2), 1 MgCl2, 10 Glucose, 10 HEPES (pH 7.4, NaOH) at room temperature. Borosilicate patch pipettes had tip resistances of 2-4 Mohms when filled with an internal solution containing: 130 KCl, 1 MgCl2, 1 CaCl2), 10 EGTA, 10 HEPES, 5 ATP-K2 (pH 7.2, KOH). The cells were clamped at −80 mV in whole cell configuration using an Axopatch 200B (Axon instruments, Union City, Calif.) patch clamp amplifier controlled by pClamp (Axon instruments) software. Upon formation of a gigaseal, the following voltage protocol was repeatedly (0.05 Hz) applied to record tail currents: depolarization step from −80 mV to +20 mV for 2 seconds followed by a hyperpolarization step to −65 mV (3 seconds) to elicit tail currents. Compounds were applied after stabilization of tail current. First, tail currents were recorded in presence of extracellular solution alone (control) and subsequently, in extracellular solution containing increasing compound concentrations. Each compound concentration was applied for 2-5 minutes. The percentage inhibition at each concentration was calculated as reduction in peak tail current with respect to the peak tail current recorded in the presence of control solution. Data analysis was performed in a custom made template. The percent inhibitions at different concentrations were plotted to obtain a concentration response curve, which was subsequently fitted with a four parameter equation to calculate hERG IC50 value.
A lower hERG % Inhibition value indicates less inhibition of the hERG current

hROMK (human Kir1.1) = hROMK (human Kir1.1) (Homo sapiens (Human), UniProt P48048); assay: Thallium Flux Assay (FluxOR, CHO T-Rex hROMK stable cell line); type: cell-based; settings: CHO T-Rex hROMK cells, 10-point concentration response curve; read-out: Human ROMK TH Flux IC50
Sequence of hROMK (human Kir1.1) (P48048 whole entry): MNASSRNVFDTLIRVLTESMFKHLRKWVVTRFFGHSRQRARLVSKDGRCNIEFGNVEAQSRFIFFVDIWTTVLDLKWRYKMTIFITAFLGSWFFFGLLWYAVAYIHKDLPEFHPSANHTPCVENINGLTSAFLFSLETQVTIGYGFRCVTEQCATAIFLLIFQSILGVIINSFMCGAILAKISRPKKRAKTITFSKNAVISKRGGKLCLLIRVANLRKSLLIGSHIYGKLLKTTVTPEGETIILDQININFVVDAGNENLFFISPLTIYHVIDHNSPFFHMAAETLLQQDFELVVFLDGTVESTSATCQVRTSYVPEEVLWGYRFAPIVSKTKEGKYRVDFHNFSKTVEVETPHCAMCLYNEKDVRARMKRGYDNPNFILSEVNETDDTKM
Experimental: Solutions and reagents: Thallium flux assay was performed using FluxOR kit (F10017, Life Technologies). Loading buffer, assay buffer and stimulus buffer were prepared using kit components.
To prepare 10 ml of loading buffer: 10 μl of FluxOR dye (reconstituted in DMSO) was first added to 100 μl of powerload concentrate and this mix along with 100 μl of Probenicid (100×) was then added to 9.79 ml of HBSS. […] Stimulus buffer was composed of 15 mM Tl2SO4, 0.75 mM K2SO4 in FluxOR chloride free buffer (diluted to 1× using deionized water). The final concentration of Tl2SO4 and K2SO4 in the assay plate was 3 mM and 0.15 mM, respectively.
Plating and induction of cells: The CHO T-Rex hROMK (human Kir1.1) stable cell line was maintained in Ham's F12 media supplemented with 10% FBS, 1% Penicillin-Streptomycin, 500 μg/ml Zeocin and 10 μg/ml Blasticidin at 37° C. in a 5% CO2 incubator. […] The cell suspension was centrifuged at 1200 rpm for 5 min. After discarding the supernatant, the cells were resuspended in fresh growth media and cell concentration was determined using a hemocytometer. […] The assay plate was kept at 37° C. in a 5% CO2 incubator.
Assay protocol: On the day of experiment, media was removed and loading buffer was added (30 μl/well) to the assay plate. The cells were incubated in the loading buffer for 30 minutes at 37° C. The loading buffer was then replaced by assay buffer (30 μl/well) followed by addition of test compounds or controls. […] Each well was read for 90 sec at 2 sec interval and the stimulus buffer was added after 20 seconds of baseline recording. The final DMSO concentration was either 0.5 or 1% in the assay plate. Positive and negative controls were defined by addition of DMSO or 3 μM of a standard ROMK inhibitor, respectively, to the wells instead of a test compound.
A 10-point concentration response curve was used to estimate the IC50 value of test compounds.

Sequence of hERG channels (Q12809 whole entry): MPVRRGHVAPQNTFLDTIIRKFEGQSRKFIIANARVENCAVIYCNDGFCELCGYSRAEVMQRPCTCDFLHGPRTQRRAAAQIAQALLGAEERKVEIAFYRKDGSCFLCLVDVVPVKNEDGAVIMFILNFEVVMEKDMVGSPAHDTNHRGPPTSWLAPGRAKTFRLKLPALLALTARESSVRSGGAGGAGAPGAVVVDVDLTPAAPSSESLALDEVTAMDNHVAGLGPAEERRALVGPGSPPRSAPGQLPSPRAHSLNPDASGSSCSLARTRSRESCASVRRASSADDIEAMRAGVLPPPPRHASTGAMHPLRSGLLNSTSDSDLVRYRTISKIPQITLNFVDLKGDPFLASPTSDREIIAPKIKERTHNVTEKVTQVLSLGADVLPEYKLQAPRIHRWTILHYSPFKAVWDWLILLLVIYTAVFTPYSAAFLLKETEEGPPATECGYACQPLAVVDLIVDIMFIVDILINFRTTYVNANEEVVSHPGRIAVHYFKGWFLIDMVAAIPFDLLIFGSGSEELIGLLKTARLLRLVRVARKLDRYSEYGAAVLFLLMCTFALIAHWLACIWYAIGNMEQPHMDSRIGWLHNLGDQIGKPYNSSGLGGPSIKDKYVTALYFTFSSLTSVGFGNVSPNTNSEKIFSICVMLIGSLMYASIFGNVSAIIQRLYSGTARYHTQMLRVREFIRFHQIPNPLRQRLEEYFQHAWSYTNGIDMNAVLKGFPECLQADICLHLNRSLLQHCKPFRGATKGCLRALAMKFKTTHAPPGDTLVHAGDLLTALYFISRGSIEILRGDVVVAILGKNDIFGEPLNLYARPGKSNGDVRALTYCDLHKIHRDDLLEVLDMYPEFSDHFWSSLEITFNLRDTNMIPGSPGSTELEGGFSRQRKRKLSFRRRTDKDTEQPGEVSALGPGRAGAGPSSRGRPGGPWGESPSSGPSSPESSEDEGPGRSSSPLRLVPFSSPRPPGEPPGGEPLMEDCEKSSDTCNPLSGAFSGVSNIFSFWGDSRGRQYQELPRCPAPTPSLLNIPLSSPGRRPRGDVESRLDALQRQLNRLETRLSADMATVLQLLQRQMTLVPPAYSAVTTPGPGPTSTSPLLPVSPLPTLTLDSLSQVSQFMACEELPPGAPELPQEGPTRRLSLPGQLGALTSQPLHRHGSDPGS

Row | Structure (SMILES) | inhibition at 1 µM (hERG channels) [%] | IC50 (hROMK (human Kir1.1)) [nM]
1 | CCN(Cc1ccc(-c2ccc3oc(=O)n(C)c3c2)nc1)C[C@H](O)c1ccc2c(c1C)COC2=O [Example 135, (R)-5-(5-((ethyl(2-hydroxy-2-(4-methyl-1-oxo-1,3-dihydroisobenzofuran-5-yl)ethyl)amino)methyl)pyridin-2-yl)-3-methylbenzo[d]oxazol-2(3H)-one] | 51 | 67
2 | CO[C@@H](CNCc1cnn(-c2cc(C)c(C#N)cn2)c1)c1ccc2c(c1C)COC2=O [Example 147, (R)-6-(4-(((2-methoxy-2-(4-methyl-1-oxo-1,3-dihydroisobenzofuran-5-yl)ethyl)amino)methyl)-1H-pyrazol-1-yl)-4-methylnicotinonitrile] | 28 | 37
3 | Cc1ncc(-c2ccc(CNC[C@H](O)c3ccc4c(c3C)COC4=O)cn2)s1 [Example 111, (R)-5-(1-hydroxy-2-(((6-(2-methylthiazol-5-yl)pyridin-3-yl)methyl)amino)ethyl)-4-methylisobenzofuran-1(3H)-one] | 69 | 48
4 | Cc1c(C(O)CN(C)Cc2ccc(-n3ccc4c(C#N)cccc43)cc2)ccc2c1COC2=O (single isomer, unassigned) [Example 28-I, 1-(4-(((2-hydroxy-2-(4-methyl-1-oxo-1,3-dihydroisobenzofuran-5-yl)ethyl)(methyl)amino)methyl)phenyl)-1H-indole-4-carbonitrile] | 94 | 180
5 | COCCN[C@@H](CNCc1cnn(-c2cc(C)c(C#N)cn2)c1)c1ccc2c(c1C)COC2=O [Example 57, (R)-6-(4-(((2-((2-methoxyethyl)amino)-2-(4-methyl-1-oxo-1,3-dihydroisobenzofuran-5-yl)ethyl)amino)methyl)-1H-pyrazol-1-yl)-4-methylnicotinonitrile] | 35 | 150
6 | COc1cc(-n2cc(CNC[C@H](O)c3ccc4c(c3C)COC4=O)cn2)ncc1C#N [Example 173, (R)-6-(4-(((2-hydroxy-2-(4-methyl-1-oxo-1,3-dihydroisobenzofuran-5-yl)ethyl)amino)methyl)-1H-pyrazol-1-yl)-4-methoxynicotinonitrile] | 77 | 2.4
7 | Cc1cc(-n2cnc(CNC[C@H](O)c3ccc4c(c3C)COC4=O)c2)nc(C)c1C#N [Example 68, (R)-6-(4-(((2-hydroxy-2-(4-methyl-1-oxo-1,3-dihydroisobenzofuran-5-yl)ethyl)amino)methyl)-1H-imidazol-1-yl)-2,4-dimethylnicotinonitrile] | 17 | 38
8 | Cc1c([C@@H](O)CNCc2cnc(-n3cnc(C(F)(F)F)c3)nc2)ccc2c1COC2=O [Example 96, (R)-5-(1-hydroxy-2-(((2-(4-(trifluoromethyl)-1H-imidazol-1-yl)pyrimidin-5-yl)methyl)amino)ethyl)-4-methylisobenzofuran-1(3H)-one] | 19 | 62
9 | Cc1cc(-n2cc(CNC[C@H](O)c3ccc4c(c3C)COC4=O)c(C)n2)ncc1C#N [Example 74, (R)-6-(4-(((2-hydroxy-2-(4-methyl-1-oxo-1,3-dihydroisobenzofuran-5-yl)ethyl)amino)methyl)-3-methyl-1H-pyrazol-1-yl)-4-methylnicotinonitrile] | 32 | 59
10 | CCOc1cc(-n2cc(CNC[C@H](O)c3ccc4c(c3C)COC4=O)cn2)ncc1C#N [Example 152, (R)-4-ethoxy-6-(4-(((2-hydroxy-2-(4-methyl-1-oxo-1,3-dihydroisobenzofuran-5-yl)ethyl)amino)methyl)-1H-pyrazol-1-yl)nicotinonitrile] | 64 | 6.2
11 | Cc1c([C@@H](O)CNCc2cnc(-n3cc(C#N)c(C(F)(F)F)n3)nc2)ccc2c1COC2=O [Example 110, (R)-1-(5-(((2-hydroxy-2-(4-methyl-1-oxo-1,3-dihydroisobenzofuran-5-yl)ethyl)amino)methyl)pyrimidin-2-yl)-3-(trifluoromethyl)-1H-pyrazole-4-carbonitrile] | 13 | 42
12 | COc1nc(-n2cc(CNC[C@H](O)c3ccc4c(c3C)COC4=O)cn2)cc(C)c1C#N [Example 72, (R)-6-(4-(((2-hydroxy-2-(4-methyl-1-oxo-1,3-dihydroisobenzofuran-5-yl)ethyl)amino)methyl)-1H-pyrazol-1-yl)-2-methoxy-4-methylnicotinonitrile] | 35 | 14
13 | Cc1c([C@@H](O)CNCc2ccc(-n3cnc(C#N)n3)nc2)ccc2c1COC2=O [Example 132, (R)-1-(5-(((2-hydroxy-2-(4-methyl-1-oxo-1,3-dihydroisobenzofuran-5-yl)ethyl)amino)methyl)pyridin-2-yl)-1H-1,2,4-triazole-3-carbonitrile] | 61 | 26
14 | Cc1c(C(O)CNCc2ccc(-c3ccc(C#N)c(F)c3)cc2)ccc2c1COC2=O (stereo not drawn) [Example 10-I, 3-fluoro-4′-(((2-hydroxy-2-(4-methyl-1-oxo-1,3-dihydroisobenzofuran-5-yl)ethyl)amino)methyl)-[1,1′-biphenyl]-4-carbonitrile] | 92 | 53
15 | COC(=O)N[C@@H](CNCc1cnn(-c2cc(C)c(C#N)cn2)c1)c1ccc2c(c1C)COC2=O [Example 60, methyl (R)-(2-(((1-(5-cyano-4-methylpyridin-2-yl)-1H-pyrazol-4-yl)methyl)amino)-1-(4-methyl-1-oxo-1,3-dihydroisobenzofuran-5-yl)ethyl)carbamate] | 12 | 72
16 | Cc1cc(-n2cc(CNC[C@H](O)c3ccc4c(c3C)COC4=O)cn2)cnc1C#N [Example 73, (R)-5-(4-(((2-hydroxy-2-(4-methyl-1-oxo-1,3-dihydroisobenzofuran-5-yl)ethyl)amino)methyl)-1H-pyrazol-1-yl)-3-methylpicolinonitrile] | 31 | 36
17 | Cc1c([C@@H](O)CNCc2cnn(-c3ccc4oc(=O)n(C)c4c3)c2)ccc2c1COC2=O [Example 81, (R)-5-(4-(((2-hydroxy-2-(4-methyl-1-oxo-1,3-dihydroisobenzofuran-5-yl)ethyl)amino)methyl)-1H-pyrazol-1-yl)-3-methylbenzo[d]oxazol-2(3H)-one] | 6 | –
18 | CCOC(=O)c1nn(-c2cc(C)c(C#N)cn2)cc1CNC[C@H](O)c1ccc2c(c1C)COC2=O [Example 98, ethyl (R)-1-(5-cyano-4-methylpyridin-2-yl)-4-(((2-hydroxy-2-(4-methyl-1-oxo-1,3-dihydroisobenzofuran-5-yl)ethyl)amino)methyl)-1H-pyrazole-3-carboxylate] | 54 | –
19 | Cc1cc(-c2ccc(CN(C)CC(O)c3ccc4c(c3C)COC4=O)cn2)ncc1C#N (single isomer, unassigned) [Example 22-I, 5′-(((2-hydroxy-2-(4-methyl-1-oxo-1,3-dihydroisobenzofuran-5-yl)ethyl)(methyl)amino)methyl)-4-methyl-[2,2′-bipyridine]-5-carbonitrile] | 9.5 | –
20 | Cc1c(C(O)CNCc2ccc(-c3ccc(C#N)c(F)c3)nc2)ccc2c1COC2=O (stereo not drawn) [Example 3-I, 2-fluoro-4-(5-(((2-hydroxy-2-(4-methyl-1-oxo-1,3-dihydroisobenzofuran-5-yl)ethyl)amino)methyl)pyridin-2-yl)benzonitrile] | 66 | –
